Data: patent US11160793B2, “Solid dosage forms of bendamustine” (Astellas Deutschland GmbH, priority 2008, dated 2021)
Structures can show the parent of a compound that is named as a salt.

Experiments:
[1] = Stability of aqueous solution of bendamustine as a function of pH (hydrolysis); type: physicochemical
[2] = 4.2-5.5 mg/kg, 7 patients, cited from earlier work
[3] = B6D2F1-mice, absorption from the gastro-intestinal tract; cited from earlier work

## Cn1c(CCCC(=O)O)nc2cc(N(CCCl)CCCl)ccc21 [bendamustine, 4-[5-[bis(2-chloroethyl)amino]-1-methylbenzimidazo-2-yl]butanoic acid]
[1]
  pH above which significant hydrolytic decomposition is observed: higher than 5

## Cn1c(CCCC(=O)O)nc2cc(N(CCCl)CCCl)ccc21 [bendamustine hydrochloride]
[2]; 25 mg capsules vs intravenous
  mean oral bioavailability: 57%
[2]; 25 mg capsules
  time to maximal plasma levels after oral administration: ≤ 1 h
[3]
  bio-availability: about 40%
